In ChEMBL document CHEMBL3091384, “Chemical probes to study ADP-ribosylation: synthesis and biochemical evaluation of inhibitors of the human ADP-ribosyltransferase ARTD3/PARP3” (J Med Chem, 2013):

Legend:
[1] = molecular target: Poly [ADP-ribose] polymerase 2 (Homo sapiens) (UniProt Q9UGN5)
Homo sapiens = organism: Homo sapiens; assay: Binding affinity to […] (unknown origin) assessed as change in melting temperature by thermal stabilization assay
[2] = molecular target: Poly [ADP-ribose] polymerase 1 (Homo sapiens, UniProt P09874)
[3] = molecular target: T1, Protein mono-ADP-ribosyltransferase PARP3 (Homo sapiens) (UniProt Q9Y6F1)
T1 sequence (whole entry): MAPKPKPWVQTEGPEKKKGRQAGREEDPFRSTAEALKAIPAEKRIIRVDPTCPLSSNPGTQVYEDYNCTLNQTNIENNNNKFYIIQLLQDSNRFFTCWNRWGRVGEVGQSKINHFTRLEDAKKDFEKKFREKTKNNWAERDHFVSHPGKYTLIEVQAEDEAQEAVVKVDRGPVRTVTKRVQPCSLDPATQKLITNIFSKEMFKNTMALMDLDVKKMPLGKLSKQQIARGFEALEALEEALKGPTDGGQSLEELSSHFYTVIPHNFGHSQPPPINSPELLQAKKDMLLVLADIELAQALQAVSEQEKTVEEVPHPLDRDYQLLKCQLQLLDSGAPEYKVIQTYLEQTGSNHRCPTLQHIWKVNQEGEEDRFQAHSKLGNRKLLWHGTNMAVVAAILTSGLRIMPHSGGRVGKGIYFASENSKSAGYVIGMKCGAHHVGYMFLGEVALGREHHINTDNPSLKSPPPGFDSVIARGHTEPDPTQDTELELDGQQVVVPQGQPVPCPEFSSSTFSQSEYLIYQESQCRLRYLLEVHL

[4] = test system: Poly [ADP-ribose] polymerase 14, ARTD8/PARP14 (Homo sapiens)

Chain of Poly [ADP-ribose] polymerase 2 (Homo sapiens) (Q9UGN5 whole entry): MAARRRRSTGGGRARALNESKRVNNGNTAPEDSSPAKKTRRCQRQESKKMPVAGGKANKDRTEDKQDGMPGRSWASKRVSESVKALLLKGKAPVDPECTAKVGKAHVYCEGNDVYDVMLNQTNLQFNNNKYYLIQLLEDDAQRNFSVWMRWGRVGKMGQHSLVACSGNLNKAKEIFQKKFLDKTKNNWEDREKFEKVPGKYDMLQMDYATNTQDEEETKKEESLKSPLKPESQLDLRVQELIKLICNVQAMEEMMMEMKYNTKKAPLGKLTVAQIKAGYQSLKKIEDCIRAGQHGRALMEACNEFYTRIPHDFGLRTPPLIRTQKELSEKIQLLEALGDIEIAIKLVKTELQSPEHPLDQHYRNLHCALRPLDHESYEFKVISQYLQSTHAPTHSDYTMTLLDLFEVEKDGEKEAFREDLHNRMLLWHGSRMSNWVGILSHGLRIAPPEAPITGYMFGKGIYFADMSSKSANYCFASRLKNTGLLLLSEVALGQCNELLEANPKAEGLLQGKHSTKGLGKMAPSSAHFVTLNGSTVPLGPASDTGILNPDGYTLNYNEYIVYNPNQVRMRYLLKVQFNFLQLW
Chain of Poly [ADP-ribose] polymerase 1 (P09874 whole entry): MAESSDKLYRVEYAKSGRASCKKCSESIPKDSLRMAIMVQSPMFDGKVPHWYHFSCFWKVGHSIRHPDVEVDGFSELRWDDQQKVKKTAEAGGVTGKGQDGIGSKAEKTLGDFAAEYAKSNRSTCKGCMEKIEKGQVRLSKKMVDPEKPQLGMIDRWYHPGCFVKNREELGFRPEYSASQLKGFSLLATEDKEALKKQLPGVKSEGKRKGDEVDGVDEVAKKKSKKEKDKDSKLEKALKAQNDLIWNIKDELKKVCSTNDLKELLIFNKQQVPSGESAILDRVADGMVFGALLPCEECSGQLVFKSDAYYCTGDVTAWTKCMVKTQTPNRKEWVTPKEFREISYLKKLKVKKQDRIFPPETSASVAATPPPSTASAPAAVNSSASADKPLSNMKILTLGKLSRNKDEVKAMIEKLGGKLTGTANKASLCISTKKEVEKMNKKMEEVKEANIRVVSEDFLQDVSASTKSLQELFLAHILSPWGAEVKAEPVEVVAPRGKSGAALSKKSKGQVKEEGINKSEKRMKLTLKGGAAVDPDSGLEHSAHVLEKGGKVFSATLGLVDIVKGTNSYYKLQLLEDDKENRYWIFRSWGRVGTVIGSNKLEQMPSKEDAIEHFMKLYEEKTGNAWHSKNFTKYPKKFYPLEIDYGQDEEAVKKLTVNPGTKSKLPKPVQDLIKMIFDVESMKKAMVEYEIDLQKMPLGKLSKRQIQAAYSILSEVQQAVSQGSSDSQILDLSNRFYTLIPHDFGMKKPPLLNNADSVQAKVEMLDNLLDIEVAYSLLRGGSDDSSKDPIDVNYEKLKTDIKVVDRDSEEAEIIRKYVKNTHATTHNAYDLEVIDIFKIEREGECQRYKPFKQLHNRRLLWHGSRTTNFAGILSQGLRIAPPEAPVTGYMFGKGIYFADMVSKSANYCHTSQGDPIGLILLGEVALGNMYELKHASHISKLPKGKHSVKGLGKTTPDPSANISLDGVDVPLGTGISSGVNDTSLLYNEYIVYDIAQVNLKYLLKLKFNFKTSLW

SMILES	ΔTm [1] [°C]	ΔTm (Homo sapiens) [°C]	ΔTm [2] [°C]	ΔTm [3] [°C]	ΔTm [4] [°C]
O=C(CCc1nc2ccccc2c(=O)[nH]1)N[C@@H](Cc1ccccc1)C(=O)O	-0.32	0.22	0.24	1.36	-0.37
Cc1ccc(C)c(C(C)NC(=O)CCc2nc3ccccc3c(=O)[nH]2)c1 (racemic)	0.87	0.44	2	3.07	0.57
O=C(NCc1ccccc1)NCc1nc2ccccc2c(=O)[nH]1	-0.23	0.34	0.65	2.91	-1.05
O=C(CCc1nc2ccccc2c(=O)[nH]1)N[C@H](CO)Cc1ccccc1	–	0.6	–	–	–
C[C@H](NC(=O)CCc1nc2ccccc2c(=O)[nH]1)c1ccc(Cl)cc1	-0.59	0.18	0.04	0.12	0.04
CC(NC(=O)CCc1nc2ccccc2c(=O)[nH]1)c1ccc(-n2ccnc2)cc1 (racemic)	–	0.64	–	–	–
O=C(CCc1nc2ccccc2c(=O)[nH]1)NC(c1ccc(Cl)cc1)C1CC1 (racemic)	0.77	0.52	2.17	0.45	-0.28
C[C@@H](NC(=O)CCc1nc2ccccc2c(=O)[nH]1)c1ccccc1	–	0.35	–	–	–
CC(NC(=O)CCc1nc2ccccc2c(=O)[nH]1)c1ccncc1 (racemic)	1.82	0.3	2.68	5.02	0
C[C@H](NC(=O)/C=C/c1nc2ccccc2c(=O)[nH]1)c1ccccc1	-0.67	0.42	1.22	0.22	-0.07
CC(NC(=O)CCc1nc2ccccc2c(=O)[nH]1)c1ccc(S(N)(=O)=O)cc1 (racemic)	–	1.94	–	–	–
O=C(CCc1nc2ccccc2c(=O)[nH]1)N1CCc2ccccc2C1	-0.17	0.14	1.15	4.73	-0.07
CCC(=O)[C@H](Cc1ccccc1)NC(=O)CCc1nc2ccccc2c(=O)[nH]1	0.98	0.07	1.93	5.71	0.13
C[C@H](NC(=O)NCc1nc2ccccc2c(=O)[nH]1)c1ccccc1	0.33	0.39	0.88	4.95	-0.77
C[C@@H](NC(=O)CCc1nc2ccccc2c(=O)[nH]1)c1ccccn1	–	0.12	–	–	–
O=C(CCc1nc2ccccc2c(=O)[nH]1)NCc1ccccc1	1.77	0.32	2.16	2.63	-0.28
C[C@H](NC(=O)CCCc1nc2ccccc2c(=O)[nH]1)c1ccccc1	0.37	0.52	1.51	4.58	-0.21
O=C(CCc1nc(O)c2ccccc2n1)NCc1ccccn1	1.48	0.15	1.93	4.83	–
O=C(CCc1nc2ccccc2c(=O)[nH]1)NC(c1ccccc1)c1ccccc1	0.3	0.22	0.2	0.2	0.45
O=C(CCc1nc2ccccc2c(=O)[nH]1)NCc1ccccc1Cl	1.64	0.48	1.85	5.39	0.26
C[C@@H](CO)NC(=O)CCc1nc2ccccc2c(=O)[nH]1	–	0.56	–	–	–
C[C@H](NC(=O)CCc1nc2ccccc2c(=O)[nH]1)c1cccc(Cl)c1	-0.48	0.29	0.26	0.2	-0.1
O=C(CCCc1nc2ccccc2c(=O)[nH]1)N[C@H]1CCc2ccccc21	1.27	0.59	1.88	4.69	-0.18
O=C(CCCc1nc2ccccc2c(=O)[nH]1)N[C@@H]1CCc2ccccc21	2.29	1.2	1.52	3.46	0.13
C[C@H](NC(=O)CCc1nc2ccccc2c(=O)[nH]1)c1cccc(C(F)(F)F)c1	-0.6	0.23	0.25	0.69	-0.37
O=C(CCc1nc2ccccc2c(=O)[nH]1)NCc1ccc(F)cc1	1.37	0.69	3.11	4.2	0.69
C[C@H](NC(=O)CCc1nc2ccccc2c(=O)[nH]1)c1cccc(F)c1	0.06	0.13	1	0.75	-0.18
